This is an account of results in patent publication US4775680A, “Cyclohept[b]indolealkanoic acids, pharmaceutical compositions and use” (Merck & Co., Inc., priority 1987, dated 1988).

The target in experiment [1] is T1, guinea pig tracheal chain (Cavia porcellus, UniProt A0A286Y4I8).
T1 construct: The trachea was removed, freed of extraneous tissue and sectioned into rings; from tissue; host or cells: guinea pig trachea (male albino Hartley strain)
T1 sequence (A0A286Y4I8 1-347): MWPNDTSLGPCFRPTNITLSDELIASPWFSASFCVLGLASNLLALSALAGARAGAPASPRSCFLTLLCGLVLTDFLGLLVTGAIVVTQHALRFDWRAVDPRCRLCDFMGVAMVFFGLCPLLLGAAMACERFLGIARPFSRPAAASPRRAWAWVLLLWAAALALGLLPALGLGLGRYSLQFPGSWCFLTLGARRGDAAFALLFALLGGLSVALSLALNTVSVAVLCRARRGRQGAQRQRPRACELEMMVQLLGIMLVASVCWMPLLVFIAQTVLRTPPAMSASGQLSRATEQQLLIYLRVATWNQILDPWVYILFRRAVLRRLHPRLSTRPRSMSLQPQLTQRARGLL
The experiment can be described thus: Estimation of pA2 values in guinea pig tracheal chain (agonist U-44069). In kind it is cell-based, guinea pig (male albino Hartley strain). The following applies: for Kb: logarithmic scale, agonist U-44069, guinea pig tracheal chain. The source says: ESTIMATION OF pA2 VALUES IN GUINEA PIG TRACHEAL CHAIN
Male albino Hartley strain guinea pigs (300-350 gm) were sacrificed by a blow to the head and exsanguinated. The trachea was removed, freed of extraneous tissue and sectioned into rings of 1-2 mm thickness. Five rings were tied together in series, ensuring that the tracheal muscle lay in the same vertical plane, and the cartilage of each ring then separated at a point directly opposite the muscle. The chains were suspended under 1 gm resting tension in modified Krebs solution (NaCl, 6.87; NaHCO3, 2.1; dextrose, 2.1; KCl, 0.32; CaCl2, 0.28; MgSO4, 7H2 O, 0.11; KH2 PO4, 0.16; gm/L: equilibrated with 5% CO2 in O2 for 1 hour) containing indomethacin (1.4×10-^5 M) to suppress endogenous protaglandin synthesis, Organ bath temperature was maintained at 37° C. and 5% CO2 in O2 diffused continously. Isometric tension changes were recorded from a Gould-Statham (UTC 2) force displacement transducer connected to a Beckman Type R Dynograph. For assay purposes initial maximal contractions were elicited with a high concentration of the contractile agonist [U-44069, 9.11-dideoxy-9a,11a-epoxymethano PGF2a ] and the tissue subsequently washed at intervals until tension returned to baseline. Agonist dose response curves were obtained using a cumulative-dose schedule (4-8 doses) and the preparations then washed at regular intervals until baseline tension was recorded. After an appropriate interval (1-1.5 hrs) agonist dose response curves were repeated in the presence of antagonist drug concentrations. […] EC50 values were obtained by regression analysis and used to calculate `apparent` and Schild Plot pA2 values by the method of Tallarida and Murray 1981.
In Table 6 below are presented data indicating the prostanoid antagonist activities of compounds of the present invention indicated in Table 1. It is to be noted that pA2 values are on a logarithmic scale, so that, for instance, a difference between two pA2 values of 1 represents a difference in potency by a factor of 10.

A further experiment has as its system human platelets. The experiment can be described thus: Inhibition of U44069-induced threshold aggregation of human platelets. The following applies: compound A versus compound 1; compound B versus compound 3. It is filed as cell-based. Here is the method:
INHIBITION OF INDUCED THRESHOLD AGGREGATION OF HUMAN PLATELETS
Human platelet rich plasma (PRP) is prepared from venous blood of male volunteers who have taken no medication for ten days prior to test. Blood is transferred into plastic centrifuge tubes containing 3.8% Trisodium Citrate in 0.9% NaCl (in a ratio of blood to anticoagulant of 9:1), mixed by gentle inversion, and centrifuged at room temperature for ten minutes at 116 g. The supernatant (PRP) is transferred into plastic tubes. Platelet poor plasma (PPP) is obtained by centrifuging the residual blood cells at 4000 g for ten minutes. PRP is left to stand at least one half hour prior to testing.
Platelet Aggregation is measured using a Payton Aggregometer and Recorder. […]
The threshold (approximately 20-30% of maximum) aggregation concentration of the agonist to be used is first determined in the presence of the drug vehicle (control). […]
The height of the aggegation response (measured in divisions of the recorder paper, 1 division=2.5 mm) in the presence of the drug is recorded, and calculated as percent inhibition of the mean height of the control threshold responses. […]

Consider `CS(=O)(=O)c1ccc(Cn2c3c(c4cc(F)cc(F)c42)CCCC(CC(=O)O)C3)cc1` (stereo not drawn), for which the Kb in experiment [1] is 0.00832 µM. Same read-out and setting: to `O=C(O)CC1CCCc2c(n(Cc3ccc(Cl)cc3)c3ccc(F)cc23)C1` (stereo not drawn) belongs 0.00316 µM. With `O=C(O)CC1CCCCc2c1c1cc(F)ccc1n2Cc1ccc(Cl)cc1` (stereo not drawn), the Kb in experiment [1] was 0.0427 µM. On to `O=C(O)C1CCCc2c(n(Cc3ccc(Cl)cc3)c3ccc(F)cc23)C1` (stereo not drawn), for which, in experiment [1], the Kb is 0.129 µM. Take `O=C(O)CC1CCCCc2c1n(Cc1ccc(Cl)cc1)c1ccc(F)cc21` (stereo not drawn): the Kb in experiment [1] was 0.00135 µM. For `COc1ccc2c(c1)c1c(n2Cc2ccc(Cl)cc2)CC(CC(=O)O)CC1` (stereo not drawn) [Compound A, reference compound], in the experiment with human platelets, the “potency as an inhibitor of platelet aggregation relative to the seven-membered ring analog” value is recorded as “seventy times less potent than compound 1”. Also, in experiment [1] (compound A versus compound 1), the “factor corresponding to the pA2 difference from compound 1” value is on record as 15 and the “pA2 lower than that of compound 1” value is given as 1.7 log units.

`COc1ccc2c(c1)c1c(n2Cc2ccc(Cl)cc2)CC(C(=O)O)CC1` (stereo not drawn) [Compound B, reference compound]: in the experiment on human platelets, the “potency as an inhibitor of platelet aggregation relative to the seven-membered ring analog” value was “at least four times less potent than the latter”. Moreover, in experiment [1] (compound B versus compound 3), the “pA2 compared with compound 3, in words” value is recorded as “slightly lower pA2 value”. On to `COc1ccc2c(c1)c1c(n2Cc2ccc(Cl)cc2)CC(CC(=O)O)CC1` (stereo not drawn) [drawing 26], for which the Kb in experiment [1] is 0.158 µM. Turning to `COc1ccc2c(c1)c1c(n2Cc2ccc(Cl)cc2)CC(C(=O)O)CC1` (stereo not drawn) [drawing 27], the Kb in experiment [1] was 0.158 µM.
